Here are results for 8 molecules from patent US12110305B2, “Prodrugs of phosphonamide nucleotide analogues and their pharmaceutical use” (priority 2020, dated 2024).

SMILES strings stand for the structures. Values after ≈ are worked out from the molar mass of the structure shown. Where two headings read alike, the source gives them in different places. A value given as a limit tells only on which side of the number the result lay.

The subject of one data set is PBMCs. Kind of data set: TFV-DP formation in peripheral blood mononuclear cells (PBMCs). Format: in vitro ADME, human. To be noted: activated PBMCs, 1 μM compound, 50% serum, 2 hrs at 37° C.; intracellular volume 0.2 pL/cell; average of at least two independent experiments. The protocol: Example 109: TFV-DP Formation in Peripheral Blood Mononuclear Cells (PBMCs)
Compounds were tested in a 96-well assay format for the level of TFV-DP loading in PBMCs in the presence of human serum. PBMCs were activated with 100 units/mL recombinant human […] and 2 μg/mL phytohaemagglutinin (PHA) for 36 hrs. After activation, PBMCs (2 million) were incubated with compounds (1 μM) and cell culture media with 50% serum in a 96 well plate for 2 hrs at 37° C. Cells were transferred to a 96 well deep block plate and spun down. Liquid was removed, and cells were washed 2× with 1 mL of 0.9% saline with spin downs between washes. After a final wash and liquid removal, 500 μL of MeOH+200 nM Cl-ATP+200 nM [adenine-^13C5]-tenofovir diphosphate (tetra ammonium salt) was added and thoroughly mixed with the cells. The plate was then spun down and 450 μL of sample was transferred to a new 96 well plate. Supernatants were then evaporated, reconstituted in 80 μl of 1 mM ammonium phosphate and thoroughly vortexed. Blank samples were pooled for serial dilution to construct calibration standards for TFV, TFV-DP and TFV-TP in pmol/million cells. Samples were then transferred to a short-well 96 well plate, centrifuged and injected on an LC-MS/MS for quantification. Values were reported in μM units using an intracellular volume of 0.2 pL/cell.

A further data set relates to HIV-1 (IIIB). Put plainly: Antiviral (HIV) assay in MT-4 cells. Type of data set: cell-based. To be noted: HIV-1 IIIB in MT-4 cells, 5 days incubation, Cell Titer Glo, average of at least two independent experiments. The method in brief:
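MT-4 cells, infected with HIV-1 IIIB (1:250 dilution of concentrated stock) or mock-infected, were exposed to 1:3 serially diluted compounds in RPMI with 10% FBS. After 5 days at 37° C., CellTiter-Glo luminescence was read. EC50 = concentration causing […], from sigmoidal dose-response fits.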
In general terms: In ATP-based viability assays light output follows the ATP content of the culture.

Another data set relates to MT-4 cells. Put plainly: Cytotoxicity assay in MT-4 cells. To be noted: uninfected MT-4 cells, 5 days; average of at least two independent experiments; read-out: MT4 CC50. Format: cell-based, human. The protocol:
Compounds were tested in a high-throughput 384-well assay format for their ability to inhibit the replication of HIV-1 (IIIB) in MT-4 cells. Compounds were serially diluted (1:3) in DMSO on 384-well polypropylene plates and further diluted 200-fold into complete RPMI media (10% FBS, 1% P/S) using the Biotek Micro Flow and Labcyte ECHO acoustic dispenser. Each plate contained up to 8 test compounds, with negative (no drug) and positive (5 μM AZT) controls. MT-4 cells were pre-treated with 10 μL of either RPMI (mock-infected) or a fresh 1:250 dilution of HIV-1 IIIB concentrated virus stock. Infected and uninfected MT-4 cells were further diluted in complete RPMI media and added to each plate using a Micro Flow dispenser. After 5 days incubation in a humidified and temperature-controlled incubator (37° C.), Cell Titer Glo (Promega) was added to the assay plates and chemiluminescence read using an Envision plate-reader. EC50 values were defined as the compound concentration that causes a 50% decrease in luminescence signal and were calculated using a sigmoidal dose-response model to generate curve fits and are shown in Table 1.
Example 105: Cytotoxicity Assay in MT-4 Cells
Assays were performed as described in Example 104 except uninfected MT-4 cells were added to each well containing test compound. In addition, 10 μM puromycin was added to the last column of each assay plate to assess a base level of cytotoxicity.

The next data set can be described thus: physchem. Type of data set: physicochemical. To be noted: phosphate buffered saline, 26 °C, aqueous buffer, kinetic from dmso stock, pH 7.4 PBS, 1.0% DMSO, 24-hour incubation at ambient temperature. The procedure: Example 108: Kinetic Solubility Analysis
Buffer Preparation: 0.1 N HCl: Hydrochloric acid, 0.1 N standardized solution (MP Biomedicals part number 199569). 1×PBS, pH 7.4: Phosphate Buffered Saline (PBS) solution 10× (Fisher Bioreagent part number BP399-500) 50 mL was added to approximately 450 mL HPLC grade H2O. The volume of the solution was then adjusted to 500 mL for a total dilution factor of 1:10 and a final PBS concentration of 1×.
The final DMSO concentration was 1.0% (v/v) and maximum theoretical compound concentration is 100 μM (for compound stock concentration of 10 mM). The filter plate was sealed. Following 24-hour incubation at ambient temperature (24.2-27.5° C.), the samples were vacuum filtered and the filtrates were collected in a 96 well polypropylene plate for analysis. The collection plate was sealed for analysis. Filtrates were injected into the Antek 8060 chemiluminescent nitrogen detector for quantification. The results are reported in μM.
The filtrates were quantified with respect to this calibration curve. Each calculated solubility value was corrected for background nitrogen present in the DMSO and in the medium used to prepare the sample. All reported values for compounds containing adjacent nitrogen atoms in a ring structure were increased by approximately 25%.

The test system of another data set is PHHs. Kind of data set: TFV-DP formation in primary human hepatocytes (PHHs). Format: in vitro ADME. To be noted: 1 μM compound, 1 hour at 37° C., intracellular volume 3 pL/cell, average of at least two independent experiments. The procedure: Example 110: TFV-DP Formation in Primary Human Hepatocytes (PHHs)
Compounds were tested in a 24-well assay format for the level of TFV-DP formation in PHHs. Cells were seeded (4.0×10^5 cells/well) in collagen coated plates and incubated at 37° C. After 4-6 hours the liquid was removed, 500 μl of new media (2% FBS, 1.5% DMSO) was added, and the cells were incubated at 37° C. overnight. The media is then replaced (2% FBS, 1.0% DMSO), compounds (1 μM) were added and the cells were incubated at 37° C. in the presence of compounds for 1 hour. Media was then removed and cells were washed 2× with 500 μl of 0.9% saline. After a final wash and liquid removal, 500 μL of MeOH+200 nM Cl-ATP+200 nM [adenine-^13C5]-tenofovir diphosphate (tetra ammonium salt) was added and cells were incubated at −80° C. for 30 minutes. The cells were kept on water ice while the MeOH/standard supernatant is pipetted up and down several times and then transferred to a 96 deep-well plate. Supernatants were then evaporated, samples were reconstituted in 80 μl of 1 mM ammonium phosphate and then thoroughly vortexed. Blank samples were pooled for serial dilution to construct calibration standards for TFV, TFV-DP and TFV-TP in pmol/million cells. Samples are then transferred to a short-well 96 well plate, centrifuged and injected on an LC-MS/MS for quantification. […]

The mark [1] stands for this setting: Human immunodeficiency virus 1, MT4, 120 h.

Usually EC50 stands for the concentration needed to bring the measured effect to its halfway point. With `C[C@H](Cn1cnc2c(N)ncnc21)OCP(=O)(NC(C)(C)C(=O)O[C@H]1CC[C@H](C(C)(C)C)CC1)NC(C)(C)C(=O)O[C@H]1CC[C@H](C(C)(C)C)CC1` [Example 12, Bis(trans-4-(tert-butyl)cyclohexyl) 2,2′-((((((R)-1-(6-amino-9H-purin-9-yl)propan-2-yl)oxy)methyl)phosphoryl)bis(azanediyl))bis(2-methylpropanoate)], in the data set on PBMCs, the “Average PBMC TFV-DP (μM)” value was “BLQ”. Also, the midpoint of the response with HIV-1 (IIIB) (setting [1]), the EC50, lay at 172 nM.
Usually CC50 stands for the concentration that lowers cell viability or growth by half. `C[C@H](Cn1cnc2c(N)ncnc21)OCP(=O)(NC(C)(C)C(=O)OCC1CCC(C)(C)CC1)NC(C)(C)C(=O)OCC1CCC(C)(C)CC1` [Example 13, Bis((4,4-dimethylcyclohexyl)methyl) 2,2′-(((((1-(6-amino-9H-purin-9-yl)propan-2-yl)oxy)methyl)phosphoryl)bis(azanediyl))(R)-bis(2-methylpropanoate)]: the “Average PBMC TFV-DP” value in the data set on PBMCs was found to be 2.6 µM. Also, in the data set on MT-4 cells, the CC50 is 5470 nM. Moreover, the EC50 in the data set on HIV-1 (IIIB) (read-out: MT4 HIV EC50) stood at 16 nM.
Regarding `C[C@H](Cn1cnc2c(N)ncnc21)OCP(=O)(NC(C)(C)C(=O)OC1CCOCC1)NC(C)(C)C(=O)OC1CCOCC1` [Example 24, Bis(tetrahydro-2H-pyran-4-yl) 2,2′-(((((1-(6-amino-9H-purin-9-yl)propan-2-yl)oxy)methyl)phosphoryl)bis(azanediyl))(R)-bis(2-methylpropanoate)], the “Average PBMC TFV-DP (μM)” value with PBMCs is recorded as “BLQ”. In the data set with HIV-1 (IIIB) (setting [1]), this molecule registered an EC50 of more than 500 nM.
Usually kinetic solubility stands for solubility judged after dilution from a stock solution rather than from solid. Turning to `CC(C)CCCOC(=O)C(C)(C)NP(=O)(CO[C@H](C)Cn1cnc2c(N)ncnc21)NC(C)(C)C(=O)OCCCC(C)C` [Example 67, Bis(4-methylpentyl) 2,2′-(((((1-(6-amino-9H-purin-9-yl)propan-2-yl)oxy)methyl)phosphoryl)bis(azanediyl))(R)-bis(2-methylpropanoate)], the solubility (kinetic) at 24 h in the data set “physchem” turned out to be 38 µg/mL (≈ 60.7 µM). Also, the concentration giving a half-maximal response (EC50) in the data set with HIV-1 (IIIB) (setting [1]) came out at 8 nM.
`CCCCCCOC(=O)C(C)(C)NP(=O)(CO[C@H](C)Cn1cnc2c(NC(=O)CCCSC(C)=O)ncnc21)NC(C)(C)C(=O)OCCCCCC` [Example 97, Dihexyl 2,2′-(((((1-(6-(4-(acetylthio)butanamido)-9H-purin-9-yl)propan-2-yl)oxy)methyl)phosphoryl)bis(azanediyl))(R)-bis(2-methylpropanoate)]: the “Average PBMC TFV-DP” value with PBMCs is 1.4 µM. Further, in the data set on MT-4 cells, the CC50 was 10700 nM. Also, in the data set with HIV-1 (IIIB) (read-out: MT4 HIV EC50), the concentration for a half-maximal effect (EC50) was determined as 13 nM. Besides, the “Average PHH TFV-DP” value with PHHs stood at 1.60 µM.
For the molecule `CCCCCCOC(=O)C(C)(C)NP(=O)(CO[C@H](C)Cn1cnc2c(NC(=O)CC(C)(C)c3c(C)cc(C)cc3OC(C)=O)ncnc21)NC(C)(C)C(=O)OCCCCCC` [Example 100, Dihexyl 2,2′-(((((1-(6-(3-(2-acetoxy-4,6-dimethylphenyl)-3-methylbutanamido)-9H-purin-9-yl)propan-2-yl)oxy)methyl)phosphoryl)bis(azanediyl))(R)-bis(2-methylpropanoate)], the “Average PBMC TFV-DP” value with PBMCs is 1.9 µM. The 50% effective concentration (EC50) in the data set with HIV-1 (IIIB) (read-out: MT4 HIV EC50) was 22 nM. The “Average PHH TFV-DP” value in the data set with PHHs was 4.73 µM.
On to `CCCCCCOC(=O)C(C)(C)NP(=O)(CO[C@H](C)Cn1cnc2c(NC(=O)CC(C)(C)CC(=O)OCc3oc(=O)oc3C)ncnc21)NC(C)(C)C(=O)OCCCCCC` [Example 102, Dihexyl 2,2′-(((((1-(6-(3,3-dimethyl-5-((5-methyl-2-oxo-1,3-dioxol-4-yl)methoxy)-5-oxopentanamido)-9H-purin-9-yl)propan-2-yl)oxy)methyl)phosphoryl)bis(azanediyl))(R)-bis(2-methylpropanoate)], for which, in the data set with PBMCs, the “Average PBMC TFV-DP (μM)” value is listed as “BLQ”. Further, the EC50 in the data set with HIV-1 (IIIB) (setting [1]) is more than 500 nM.
With `C[C@H](Cn1cnc2c(N)ncnc21)OCP(=O)(NC(C)(C)C(=O)OCCc1ccccc1)NC(C)(C)C(=O)OCCc1ccccc1` [Example 103, Diphenethyl 2,2′-(((((1-(6-amino-9H-purin-9-yl)propan-2-yl)oxy)methyl)phosphoryl)bis(azanediyl))(R)-bis(2-methylpropanoate)], the “Average PBMC TFV-DP” value in the data set with PBMCs stood at 0.4 µM. In the data set with MT-4 cells, the half-maximal cytotoxic concentration (CC50) is more than 42500 nM. For the same molecule, in the data set on HIV-1 (IIIB) (read-out: MT4 HIV EC50), the EC50 is more than 500 nM.
